The values below come from patent US11697650B2, “Compounds having tetrahydroindolizine-1-carboxamide as BCL-2 inhibitors” (Eil Therapeutics, Inc., priority 2021, dated 2023).

One data set deals with RS4-11 cells. Nature of the data set: Cell viability assay (CellTiter-Glo), RS4-11. As to conditions: Homo sapiens, 72 h, 3 days, read-out: RS4-11 (CC50 code). The class given is cell-based. In a few lines: (§1)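 HEK293 cells in DMEM at 2000/well, plated a day before dosing; RS4-11 and MOLT-4 in RPMI-1640 at 4000/well. Compounds diluted from 200× DMSO stocks through medium into wells, then incubated 3 days at 37 °C. Viability read by CellTiter-Glo luminescence.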
In general terms: In ATP-based viability assays light output follows the ATP content of the culture.

For a further data set, the target named is MCL-1 (Homo sapiens (Human), UniProt Q07820). Nature of the data set: MCL-1 TR-FRET Assay (primary PPI inhibition). The format is binding. The settings on record: 60 min incubation; read-out: MCL1 IC50. As to the method:
MCL-1 TR-FRET Assay (BPS Bioscience, #79506)
The following assay concentrations and times were used: 10 ng MCL-1, 5 μl of 1:200 anti-His Tb-labeled donor, 5 μl of 1:200 Dye-labeled acceptor, 5 μl of 1:10 MCL-1 Peptide Ligand, and 2 μl of test compound, with 60 min incubation time. The results of the assay were read using a Clariostar (BMG Labtech) plate reader with the following parameters: TR FRET, 340ex/620 and 665em; 60 μsec Delay; and 500 μsec integration.
(In general: In TR-FRET formats the signal depends on donor and acceptor labels being close together.)

Data set [1] concerns caspase-3 and -7 activities in RS4-11 cells. Nature of the data set: Caspase-3/7 activation (Caspase-Glo 3/7) in RS4-11 cells. The format is cell-based. As to conditions: Homo sapiens, 3.5 h incubation, read-out: Cas-3/7 (EC50 code). The protocol: The Caspase-Glo 3/7 Assay is homogeneous, luminescent assay that measures caspase-3 and -7 activities. The assay provides a luminogenic caspase-3/7 substrate, which contains the tetrapeptide sequence DEVD, in a reagent optimized for caspase activity.
Incubate RS4-11 cells with varying concentrations of test compounds for 3.5 h in a humidified incubator at 37° C. and 5% CO2 and 30 min at r.t. Add 15 μl Caspase-Glo reagent to each well and incubate the plate for 30 min at r.t. Read on ClarioStar Plus instrument.
Promega Caspase-Glo (Promega, #8212); Frozen RS4-11 cells; 384-well white plate (Corning, #3570).
ClarioStar Plus; Biomek FX for liquid handling (Beckman Coulter).

Data set [2] can be described thus: Cell viability assay (CellTiter-Glo), HEK293. The class given is cell-based. The settings on record: human, HEK293 cells, read-out: HEK293 (CC50 code). The method in brief:
as §1

For another data set, the target named is BCL-XL (Homo sapiens (Human), UniProt Q07817). Nature of the data set: BCL-XL TR-FRET Assay (primary PPI inhibition). The class given is binding. The settings on record: 60 min incubation; read-out: BCLxL (IC50 code, BCL-XL TR-FRET). In a few lines: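 TR-FRET displacement of a dye-labelled BCL-XL peptide ligand from His-tagged BCL-XL (10.5 ng) detected with a Tb-labelled anti-His donor. Incubation ran 60 min with test compound. Readout used 340 nm excitation and 620/665 nm emission with a 60 µs delay.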

The test system of another data set is MOLT-4 cells. The data set is described as follows: Cell viability assay (CellTiter-Glo), MOLT-4. The format is cell-based. The settings on record: Homo sapiens, 72 h, 3 days, read-out: MOLT-4 (CC50 code). In a few lines: as §1
The target in a further data set is BCL-2 (Homo sapiens (Human), UniProt P10415). Nature of the data set: BCL-2 TR-FRET Assay (primary PPI inhibition). The format is binding. As to conditions: 60 min incubation; read-out: BCL2 (IC50 code, BCL-2 TR-FRET). In a few lines: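 Mixture of 3 ng BCL-2, anti-His Tb donor, dye-labeled acceptor and BCL-2 peptide ligand, incubated 60 min with test compound. TR-FRET read at 340 nm excitation, 620/665 nm emission, 60 µs delay, 500 µs integration.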

As a reminder, the CC50 is the concentration giving 50% cytotoxicity. As a reminder, the IC50 is the midpoint of a concentration-inhibition curve.

Bounds are passed on as bounds.

BCL-2, sequence (P10415 whole entry): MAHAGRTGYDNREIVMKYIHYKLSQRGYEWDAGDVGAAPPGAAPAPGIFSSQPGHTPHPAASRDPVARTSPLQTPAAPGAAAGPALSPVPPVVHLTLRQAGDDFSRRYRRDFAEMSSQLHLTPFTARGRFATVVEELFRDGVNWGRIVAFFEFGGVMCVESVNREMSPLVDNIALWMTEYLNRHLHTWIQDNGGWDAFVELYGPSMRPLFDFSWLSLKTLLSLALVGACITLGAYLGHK
BCL-XL, sequence (Q07817 whole entry): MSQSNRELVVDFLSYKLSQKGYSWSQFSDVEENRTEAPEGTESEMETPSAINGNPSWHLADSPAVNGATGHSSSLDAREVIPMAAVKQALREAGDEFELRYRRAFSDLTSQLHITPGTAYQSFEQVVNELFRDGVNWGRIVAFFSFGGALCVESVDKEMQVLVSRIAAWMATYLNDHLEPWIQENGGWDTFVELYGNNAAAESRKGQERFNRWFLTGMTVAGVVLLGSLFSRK
MCL-1, sequence (Q07820 whole entry): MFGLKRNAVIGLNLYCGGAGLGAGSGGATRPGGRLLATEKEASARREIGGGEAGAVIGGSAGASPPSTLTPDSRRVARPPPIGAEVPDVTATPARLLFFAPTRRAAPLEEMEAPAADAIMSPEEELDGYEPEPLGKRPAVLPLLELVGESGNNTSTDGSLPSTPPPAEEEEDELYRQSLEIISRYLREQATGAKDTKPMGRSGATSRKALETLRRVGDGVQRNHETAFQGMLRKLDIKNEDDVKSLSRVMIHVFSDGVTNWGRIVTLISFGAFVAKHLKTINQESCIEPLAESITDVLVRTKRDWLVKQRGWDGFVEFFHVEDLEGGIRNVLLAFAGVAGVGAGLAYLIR

Take `COCCNC(=O)c1ccc(CN(C(=O)c2cc(-c3cc4c(cc3C(=O)N3Cc5ccccc5C[C@H]3CN3CCOCC3)OCO4)n3c2CCCC3)c2ccc(O)cc2)cc1` [Compound 1, N-(4-hydroxyphenyl)-N-{4-[(2-methoxyethyl)carbamoyl]benzyl}-3-(6-{[(3S)-3-(morpholin-4-ylmethyl)-3,4-dihydroisoquinolin-2(1H)-yl]carbonyl}-1,3-benzodioxol-5-yl)-5,6,7,8-tetrahydroindolizine-1-carboxamide]: the CC50 was at most 100 nM in the data set on RS4-11 cells and 2000 to 10000 nM in the data set on MOLT-4 cells. Also, the values for the IC50 on MCL-1, at BCL-XL and at BCL-2 were above 100000 nM, at most 2000 nM and at most 5 nM, respectively. For the same compound, the EC50 in data set [1] is at most 100 nM. Besides, in data set [2], the CC50 at 3 days was at most 10000 nM.
Take `COCCNC(=O)c1cccc(CN(C(=O)c2cc(-c3cc4c(cc3C(=O)N3Cc5ccccc5C[C@H]3CN3CCOCC3)OCO4)n3c2CCCC3)c2ccc(O)cc2)c1` [Compound 2, N-(4-hydroxyphenyl)-N-{3-[(2-methoxyethyl)carbamoyl]benzyl}-3-(6-{[(3S)-3-(morpholin-4-ylmethyl)-3,4-dihydroisoquinolin-2(1H)-yl]carbonyl}-1,3-benzodioxol-5-yl)-5,6,7,8-tetrahydroindolizine-1-carboxamide]: the CC50 in the data set with RS4-11 cells was 100 to 200 nM; in the data set on MOLT-4 cells, above 10000 nM. The concentration for half-maximal inhibition (IC50) was above 100000 nM on MCL-1 and at most 5 nM at BCL-2. In addition, in data set [1], the EC50 was above 250 nM. For the same compound, in data set [2], the CC50 at 3 days is at most 10000 nM.
`CN(C)CCNC(=O)c1cccc(CN(C(=O)c2cc(-c3cc4c(cc3C(=O)N3Cc5ccccc5C[C@H]3CN3CCOCC3)OCO4)n3c2CCCC3)c2ccc(O)cc2)c1` [Compound 6, N-(3-{[2-(dimethylamino)ethyl]carbamoyl}benzyl)-N-(4-hydroxyphenyl)-3-(6-{[(3S)-3-(morpholin-4-ylmethyl)-3,4-dihydroisoquinolin-2(1H)-yl]carbonyl}-1,3-benzodioxol-5-yl)-5,6,7,8-tetrahydroindolizine-1-carboxamide]: the CC50 in the data set on RS4-11 cells is above 200 nM; with MOLT-4 cells it was above 10000 nM. Further, the values for the IC50 at MCL-1 and on BCL-2 were above 100000 nM and at most 5 nM, respectively. In addition, the EC50 in data set [1] is above 250 nM. In data set [2], the CC50 at 3 days is 10000 to 25000 nM.
For `NC(=O)c1cccc(CN(C(=O)c2cc(-c3cc4c(cc3C(=O)N3Cc5ccccc5C[C@H]3CN3CCOCC3)OCO4)n3c2CCCC3)c2ccc(O)cc2)c1` [Compound 7, N-(3-carbamoylbenzyl)-N-(4-hydroxyphenyl)-3-(6-{[(3S)-3-(morpholin-4-ylmethyl)-3,4-dihydroisoquinolin-2(1H)-yl]carbonyl}-1,3-benzodioxol-5-yl)-5,6,7,8-tetrahydroindolizine-1-carboxamide], the 50% cytotoxic concentration (CC50) was 100 to 200 nM in the data set on RS4-11 cells and 2000 to 10000 nM in the data set with MOLT-4 cells. Besides, the concentration for half-maximal inhibition (IC50) at MCL-1 was above 100000 nM; at BCL-XL it was at most 2000 nM; on BCL-2, at most 5 nM. In addition, the EC50 in data set [1] lay in the range of 100 to 250 nM. For the same compound, the CC50 at 3 days in data set [2] was at most 10000 nM.
Turning to `CN(C)CCNC(=O)c1ccc(CN(C(=O)c2cc(-c3cc4c(cc3C(=O)N3Cc5ccccc5C[C@H]3CN3CCOCC3)OCO4)n3c2CCCC3)c2ccc(O)cc2)cc1` [Compound 8, N-(4-{[2-(dimethylamino)ethyl]carbamoyl}benzyl)-N-(4-hydroxyphenyl)-3-(6-{[(3S)-3-(morpholin-4-ylmethyl)-3,4-dihydroisoquinolin-2(1H)-yl]carbonyl}-1,3-benzodioxol-5-yl)-5,6,7,8-tetrahydroindolizine-1-carboxamide], the figures for the CC50 in the data set with RS4-11 cells and with MOLT-4 cells were at most 100 nM and above 10000 nM, respectively. Moreover, the IC50 on MCL-1 was above 100000 nM; on BCL-XL, at most 2000 nM; on BCL-2, at most 5 nM. In addition, the EC50 in data set [1] is at most 100 nM. For the same compound, the cytotoxic concentration (CC50) at 3 days in data set [2] is above 25000 nM.
On to `CN1CCN(C(=O)c2cccc(CN(C(=O)c3cc(-c4cc5c(cc4C(=O)N4Cc6ccccc6C[C@H]4CN4CCOCC4)OCO5)n4c3CCCC4)c3ccc(O)cc3)c2)CC1` [Compound 10, N-(4-hydroxyphenyl)-N-{3-[(4-methylpiperazin-1-yl)carbonyl]benzyl}-3-(6-{[(3S)-3-(morpholin-4-ylmethyl)-3,4-dihydroisoquinolin-2(1H)-yl]carbonyl}-1,3-benzodioxol-5-yl)-5,6,7,8-tetrahydroindolizine-1-carboxamide], for which the CC50 with RS4-11 cells is above 200 nM; in the data set on MOLT-4 cells, above 10000 nM. For the same compound, the half-inhibitory concentration (IC50) at MCL-1 was above 100000 nM; at BCL-2 it was 5 to 10 nM. For the same compound, the EC50 in data set [1] was above 250 nM. The CC50 at 3 days in data set [2] lay within 10000 to 25000 nM.
With `CN1CCN(C(=O)c2ccc(CN(C(=O)c3cc(-c4cc5c(cc4C(=O)N4Cc6ccccc6C[C@H]4CN4CCOCC4)OCO5)n4c3CCCC4)c3ccc(O)cc3)cc2)CC1` [Compound 12, N-(4-hydroxyphenyl)-N-{4-[(4-methylpiperazin-1-yl)carbonyl]benzyl}-3-(6-{[(3S)-3-(morpholin-4-ylmethyl)-3,4-dihydroisoquinolin-2(1H)-yl]carbonyl}-1,3-benzodioxol-5-yl)-5,6,7,8-tetrahydroindolizine-1-carboxamide], the CC50 with RS4-11 cells is at most 100 nM; in the data set on MOLT-4 cells, above 10000 nM. Besides, the results for the IC50 at MCL-1, on BCL-XL and on BCL-2 were above 100000 nM, at most 2000 nM and 5 to 10 nM, respectively. Besides, the EC50 in data set [1] was at most 100 nM. Besides, in data set [2], the CC50 at 3 days is 10000 to 25000 nM.
Turning to `NC(=O)c1ccc(CN(C(=O)c2cc(-c3cc4c(cc3C(=O)N3Cc5ccccc5C[C@H]3CN3CCOCC3)OCO4)n3c2CCCC3)c2ccc(O)cc2)cc1` [Compound 13, N-(4-carbamoylbenzyl)-N-(4-hydroxyphenyl)-3-(6-{[(3S)-3-(morpholin-4-ylmethyl)-3,4-dihydroisoquinolin-2(1H)-yl]carbonyl}-1,3-benzodioxol-5-yl)-5,6,7,8-tetrahydroindolizine-1-carboxamide], the results for the half-maximal cytotoxic concentration (CC50) with RS4-11 cells and with MOLT-4 cells were at most 100 nM and 2000 to 10000 nM, respectively. The IC50 at MCL-1 is above 100000 nM; at BCL-XL, at most 2000 nM; on BCL-2, 5 to 10 nM. Further, the EC50 in data set [1] is at most 100 nM. Besides, in data set [2], the 50% cytotoxic concentration (CC50) at 3 days was 10000 to 25000 nM.
